# Experimental data as given in US10583120B2, “Composition having a muscle-relaxant and anti-inflammatory activity” (Kolinpharma S.p.A., priority 2014, dated 2020).
# Tests used:
# [1] = tested on: human skeletal muscle myotubes; assay: Evaluation of the muscle-relaxant effect (Test 2), contractile activity of myotubes stimulated with carbacol; format: cell-based; conditions: myotubes with carbacol 3 mM, FIG. 5A; at least partly restored during washing
# Procedure: The myoblasts were differentiated into myotubes in differentiation medium (DMEM: F12, with the addition of 2% of horse serum). The differentiated myotubes were used for the experiments from the fourth to the seventh day of maintenance in differentiation medium.
# For the evaluation of the muscle-relaxant effect of MILESAX, human myoblasts were seeded onto microscope slides and, once they had reached at least about 70% confluence, they were maintained in differentiation medium for 4-7 days before being used for the experiments. The contractile activity of the myotubes was recorded with a TCS SP5 confocal microscope (Leica Microsystems) in transmitted-light mode with the 40× objective lens (HCX PL APO, 1.25 NA, Leica Microsystems) using the incubator associated with the microscope to maintain the cells under a controlled atmosphere (37° C., 5% CO2). […]
# Not all the myotubes in the culture were capable of contracting, and similarly it was never possible to observe spontaneous contractions only in differentiation medium. […] The contractile activity of the identified active cell(s) was recorded with a confocal microscope in transmitted light, with an image acquired every 151 ms. […]
# [2] = tested on: TNFα release from differentiated THP-1 monocytes; assay: ELISA test (Test 1), release of TNFα into culture medium; format: cell-based, human; conditions: positive control at 100 μM, LPS 1 μg/ml for 2 hours
# [3] = tested on: IL-1β release from differentiated THP-1 monocytes; assay: ELISA test (Test 1), release of IL-1β into culture medium; format: cell-based, human; conditions: positive control at 100 μM, LPS 1 μg/ml for 2 hours
# THP-1 cells = conditions: positive controls at 100 μM
# Text: The absorbance measured correlates directly with the number of live cells.
SMILES,frequency of contractions per unit time (contractions per minute) [1],release of TNFα relative to vehicle/control [2],release of IL-1β [3],toxic effect on the cells (MTT test) (THP-1 cells)
"COc1c(O[C@@H]2O[C@H](CO)[C@@H](O)[C@H](O)[C@H]2O)cc2c(c1OC)-c1ccc(SC)c(=O)cc1[C@@H](NC(C)=O)CC2 [Muscoril, thiocolchicoside]",clear tendency,,,
O=C(O)Cc1ccccc1Nc1c(Cl)cccc1Cl [diclofenac],,significantly reduced the release of TNFα,effective in reducing the release of IL-1β,no toxic effect on the cells
CC(C)Cc1ccc(C(C)C(=O)O)cc1 (stereo not drawn) [ibuprofen],,did not lead to any reduction in the release of TNFα,no effect on the release of IL-1β,
